The values that follow come from ChEMBL document CHEMBL1201862, “PubChem BioAssay data set” (2004).

Active and inactive are the calls of the source.

For experiment [1], the target named is G-protein coupled receptor 55 (Homo sapiens, UniProt Q9Y2T6). The experiment in a line: GPR55 antagonists blocking LPI-driven arrestin recruitment, primary screen, imaging, U2OS, beta-arrestin-GFP, LPI agonist (AID 2013).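 Also: antagonist potency measured as reduced agonist-driven arrestin aggregation.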 The format is functional. A general note: Activated receptors often draw arrestin, which recruitment assays turn into a signal.
The nature of experiment [2]: C. albicans growth with fluconazole, confirmation, fluorescence, retest (AID 2467). The format is functional, cell-based.
For a further experiment, the system named is INS1. The experiment in a line: beta cell apoptosis inhibitors, cytokine rescue, dose response, luminescence, retest (AID 449756).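 Also: cell death triggered by IL-1 beta plus TNF-alpha plus IFN-gamma mixture; protective hits raise ATP signal compared with cytokine alone wells.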 The format is functional, cell-based. The settings on record: Rattus norvegicus.
Experiment [3] concerns the target G-protein coupled receptor 35 (Homo sapiens, UniProt Q9HC97). The experiment in a line: GPR35 antagonists blocking zaprinast-driven arrestin recruitment, primary screen, imaging, U2OS, beta-arrestin-GFP, zaprinast agonist (AID 2058).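 Also: antagonist potency meaning inhibition of agonist-induced arrestin redistribution.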 The format is functional.
The nature of experiment [4]: NIH-3T3 fibroblast cytotoxicity, dose response, cytotoxicity control, cell-based, fluorescence, Alamar Blue, secondary assay (AID 2327).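 Also: NIH-3T3 mouse fibroblasts cultured with fluconazole at 8 µg/mL.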 The format is functional.
In experiment [5] the target is Scavenger receptor class B member 1 (Mus musculus, UniProt Q61009). The experiment in a line: inhibitors of SR-BI mediated HDL lipid uptake, dose response, ldlA[mSR-BI] cells, fluorescence, cherry pick (AID 493194).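 Also: cellular uptake of fluorescent DiI-labeled HDL measured as cell fluorescence.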 The format is functional, cell-based.
Experiment [6] is described as follows: growth suppression of beta-catenin-knockout colon cells, dose response, cell-based, HCT116, human colon tumor (AID 1045).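 Also: HCT116 colon tumor cells with beta catenin knocked out; cells exposed to compound for 60 hours.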 The format is functional.
A short description of experiment [7]: growth suppression of PTEN-null colon cells, dose response, cell-based, HCT116 PTEN knockout (AID 1047).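 Also: HCT116 colon tumor cells with PTEN knocked out; cells exposed to compound for 60 hours before readout; potency for loss of cell viability measured by luminescence.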 The format is functional.
The target of experiment [8] is T1, Ubiquitin-conjugating enzyme E2 N (Homo sapiens, UniProt P61088).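 Also: Dose-response confirmation in a TR-FRET assay detecting UBC13-driven polyubiquitin chain formation, inhibition measured.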
T1 sequence (P61088 whole entry): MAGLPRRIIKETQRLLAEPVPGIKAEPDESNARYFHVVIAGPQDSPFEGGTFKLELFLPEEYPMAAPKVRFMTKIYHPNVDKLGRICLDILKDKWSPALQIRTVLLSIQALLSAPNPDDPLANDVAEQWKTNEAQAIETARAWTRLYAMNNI
The format is functional.

For experiment [9], the target named is Acyl-homoserine lactone acylase PvdQ (Pseudomonas aeruginosa (strain LESB58), UniProt Q9I194). The experiment in a line: P. aeruginosa PvdQ acylase inhibitors, dose response, biochemical, fluorescence, plate reader and imaging, cherry-picks (AID 493231).
For a further experiment, the target named is T2, Protein skinhead-1 (Caenorhabditis elegans, UniProt P34707).
T2 sequence (P34707 whole entry): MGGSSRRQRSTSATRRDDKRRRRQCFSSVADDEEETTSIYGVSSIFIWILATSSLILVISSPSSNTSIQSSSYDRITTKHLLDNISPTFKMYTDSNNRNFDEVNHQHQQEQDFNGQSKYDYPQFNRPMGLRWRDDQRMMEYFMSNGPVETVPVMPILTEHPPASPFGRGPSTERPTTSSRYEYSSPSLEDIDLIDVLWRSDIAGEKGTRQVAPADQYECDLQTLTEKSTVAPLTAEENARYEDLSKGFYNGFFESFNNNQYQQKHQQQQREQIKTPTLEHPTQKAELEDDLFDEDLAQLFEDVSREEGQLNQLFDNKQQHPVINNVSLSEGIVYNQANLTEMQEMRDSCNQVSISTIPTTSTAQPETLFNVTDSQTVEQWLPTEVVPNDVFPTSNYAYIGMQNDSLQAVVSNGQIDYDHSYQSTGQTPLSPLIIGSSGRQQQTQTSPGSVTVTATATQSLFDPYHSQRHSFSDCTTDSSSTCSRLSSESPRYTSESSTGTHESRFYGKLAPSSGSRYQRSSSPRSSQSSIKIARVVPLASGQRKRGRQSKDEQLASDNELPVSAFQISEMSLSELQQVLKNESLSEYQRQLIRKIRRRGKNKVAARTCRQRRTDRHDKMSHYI
The format is functional.

Experiment [10] deals with T3, Tyrosine-protein phosphatase non-receptor type 7 (Homo sapiens, UniProt P35236).
T3 sequence (P35236 whole entry): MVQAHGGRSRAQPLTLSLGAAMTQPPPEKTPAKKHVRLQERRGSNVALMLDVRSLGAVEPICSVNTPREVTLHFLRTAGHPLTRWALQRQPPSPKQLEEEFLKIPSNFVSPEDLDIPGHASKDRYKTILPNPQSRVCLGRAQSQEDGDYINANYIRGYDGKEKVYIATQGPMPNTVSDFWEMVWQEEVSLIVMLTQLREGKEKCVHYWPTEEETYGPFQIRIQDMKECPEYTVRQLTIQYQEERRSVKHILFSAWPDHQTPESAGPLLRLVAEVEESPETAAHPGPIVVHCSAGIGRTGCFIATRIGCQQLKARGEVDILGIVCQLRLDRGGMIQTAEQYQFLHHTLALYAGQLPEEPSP
The format is functional.

Experiment [11] has as its target T4, Dual specificity protein phosphatase 6 (Rattus norvegicus, UniProt Q64346).
T4 sequence (Q64346 whole entry): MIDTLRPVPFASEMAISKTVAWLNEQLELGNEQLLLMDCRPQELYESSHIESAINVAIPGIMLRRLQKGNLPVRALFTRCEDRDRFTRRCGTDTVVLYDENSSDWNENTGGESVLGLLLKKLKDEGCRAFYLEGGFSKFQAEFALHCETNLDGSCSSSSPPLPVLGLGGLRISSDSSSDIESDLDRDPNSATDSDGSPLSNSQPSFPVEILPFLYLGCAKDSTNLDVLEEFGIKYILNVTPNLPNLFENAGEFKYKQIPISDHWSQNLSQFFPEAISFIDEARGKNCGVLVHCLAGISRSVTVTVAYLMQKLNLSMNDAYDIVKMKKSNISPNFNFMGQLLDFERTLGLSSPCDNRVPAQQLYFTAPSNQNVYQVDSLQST

The target of experiment [12] is T4, Dual specificity protein phosphatase 6. The format is functional.
Experiment [13] deals with Glyceraldehyde-3-phosphate dehydrogenase (Homo sapiens, UniProt P04406).
Experiment [14] concerns the target T5, Voltage-gated N-type calcium channel alpha-1B subunit/Amyloid beta A4 precursor protein-binding family A member 1 (Homo sapiens, UniProt Q00975+Q02410). The format is protein assay.
For experiment [15], the target named is Glucose-6-phosphate 1-dehydrogenase (Homo sapiens, UniProt P11413). The experiment in a line: human G6PD enzyme inhibitors, dose response, selectivity assay for P. falciparum G6PD inhibitor project, biochemical, fluorescence (AID 504792). The format is functional.
For experiment [16], the target named is T5, Voltage-gated N-type calcium channel alpha-1B subunit/Amyloid beta A4 precursor protein-binding family A member 1. The experiment in a line: disruptors of Mint-PDZ/N-type channel peptide interaction – biochemical, HTRF, SAR follow-up (AID 2489). The format is functional. For orientation: TR-FRET usually uses a lanthanide donor and a delayed reading to cut background.

For experiment [17] the target is unchanged. The format is protein assay. This is another data set of the same source.
The target is the same in experiment [18]. The experiment in a line: disruptors of Mint-PDZ/N-type channel peptide interaction – biochemical, HTRF, set 2, SAR follow-up (AID 434980). The format is functional.
The target in experiment [19] is Bifunctional protein GlmU (Mycobacterium tuberculosis, UniProt P9WMN3). The experiment in a line: Inhibitors of Mycobacterial Glucosamine-1-phosphate acetyl transferase (GlmU). Secondary screen. The arrangement: species or system Mycobacterium tuberculosis H37Rv.
For the next experiment, the target named is Bcl-2-like protein 10 (Homo sapiens, UniProt Q9HD36). The experiment in a line: displacers of TR3 peptide from Bcl-B, primary screen, selectivity assay for Bfl-1 inhibitor project, biochemical, fluorescence polarization, FITC-TR3 peptide (AID 748). A general note: Fluorescence polarisation rises when a labelled molecule tumbles more slowly, as on binding a larger partner.

The target of experiment [20] is T6, Carboxy-terminal domain RNA polymerase II polypeptide A small phosphatase 1 (Homo sapiens, UniProt Q9GZU7).
T6 sequence (Q9GZU7 whole entry): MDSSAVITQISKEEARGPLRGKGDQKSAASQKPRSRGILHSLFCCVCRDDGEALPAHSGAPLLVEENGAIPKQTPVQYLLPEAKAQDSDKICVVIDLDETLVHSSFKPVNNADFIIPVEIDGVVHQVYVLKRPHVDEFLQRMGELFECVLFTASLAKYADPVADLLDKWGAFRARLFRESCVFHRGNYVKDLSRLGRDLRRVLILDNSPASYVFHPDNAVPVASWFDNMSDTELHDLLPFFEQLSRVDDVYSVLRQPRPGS
The experiment in a line: inhibitors of CTDSP1, concentration-response testing, biochemical assay, absorbance-based, actives from ultra-high-throughput screening (AID 540297). The format is functional.

Experiment [21] deals with T7, Histone-lysine N-methyltransferase NSD2 (Homo sapiens, UniProt O96028).
T7 sequence (O96028 whole entry): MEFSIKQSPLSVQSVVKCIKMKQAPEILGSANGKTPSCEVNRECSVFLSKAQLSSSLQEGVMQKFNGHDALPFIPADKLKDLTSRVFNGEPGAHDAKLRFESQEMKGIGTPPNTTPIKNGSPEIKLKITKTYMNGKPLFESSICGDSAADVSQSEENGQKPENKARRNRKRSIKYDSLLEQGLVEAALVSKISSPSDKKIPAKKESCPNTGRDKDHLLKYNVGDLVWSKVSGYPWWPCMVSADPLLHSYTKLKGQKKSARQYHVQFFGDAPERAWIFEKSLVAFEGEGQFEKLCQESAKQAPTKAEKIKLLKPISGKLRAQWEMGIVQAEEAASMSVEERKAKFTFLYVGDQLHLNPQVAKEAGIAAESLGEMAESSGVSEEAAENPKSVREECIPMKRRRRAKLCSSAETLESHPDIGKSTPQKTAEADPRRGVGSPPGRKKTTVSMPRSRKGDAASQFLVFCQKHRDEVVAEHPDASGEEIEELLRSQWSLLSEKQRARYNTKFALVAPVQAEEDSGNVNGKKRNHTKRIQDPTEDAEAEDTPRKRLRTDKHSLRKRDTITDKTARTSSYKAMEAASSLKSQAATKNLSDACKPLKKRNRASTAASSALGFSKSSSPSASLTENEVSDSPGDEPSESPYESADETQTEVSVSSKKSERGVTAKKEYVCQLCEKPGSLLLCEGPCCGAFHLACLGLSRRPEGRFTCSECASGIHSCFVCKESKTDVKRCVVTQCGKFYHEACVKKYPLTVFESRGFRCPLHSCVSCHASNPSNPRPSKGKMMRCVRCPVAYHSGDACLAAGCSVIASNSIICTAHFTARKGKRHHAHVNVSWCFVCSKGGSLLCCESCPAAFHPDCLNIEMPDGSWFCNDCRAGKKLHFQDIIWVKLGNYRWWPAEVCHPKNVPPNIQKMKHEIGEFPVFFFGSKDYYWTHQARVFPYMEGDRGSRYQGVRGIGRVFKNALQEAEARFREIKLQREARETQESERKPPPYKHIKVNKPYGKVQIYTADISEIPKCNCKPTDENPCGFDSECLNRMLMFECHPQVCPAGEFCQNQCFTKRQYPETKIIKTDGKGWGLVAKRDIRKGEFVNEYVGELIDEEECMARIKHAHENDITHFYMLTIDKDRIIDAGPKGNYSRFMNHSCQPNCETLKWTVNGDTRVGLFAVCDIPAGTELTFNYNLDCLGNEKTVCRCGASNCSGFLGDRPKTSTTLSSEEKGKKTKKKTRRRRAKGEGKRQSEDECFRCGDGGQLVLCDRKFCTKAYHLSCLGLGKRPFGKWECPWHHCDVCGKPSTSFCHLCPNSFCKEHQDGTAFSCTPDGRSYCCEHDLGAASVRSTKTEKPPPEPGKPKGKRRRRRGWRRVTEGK
The format is biochemical.

The subject of the next experiment is HeLa. The experiment in a line: HeLa cell cytotoxicity, dose response, cytotoxicity control, 24 h, cherry-picked samples (AID 504726).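 Also: potency for cytotoxicity as loss of luminescence signal.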 The format is functional, cell-based. The settings on record: Homo sapiens.
The target of experiment [22] is Protein phosphatase methylesterase 1 (Homo sapiens, UniProt Q9Y570). The experiment in a line: PME-1 inhibitor potency by in-gel ABPP, dose response, selectivity assay for PME-1 inhibitor project, cell lysate, mouse brain cytosol, FP-rhodamine, panel member PME-1 Assay Panel member description: Inhibition of endogenously expressed PME-1 (AID 2366).
Sequence of Protein phosphatase methylesterase 1 (Q9Y570 whole entry): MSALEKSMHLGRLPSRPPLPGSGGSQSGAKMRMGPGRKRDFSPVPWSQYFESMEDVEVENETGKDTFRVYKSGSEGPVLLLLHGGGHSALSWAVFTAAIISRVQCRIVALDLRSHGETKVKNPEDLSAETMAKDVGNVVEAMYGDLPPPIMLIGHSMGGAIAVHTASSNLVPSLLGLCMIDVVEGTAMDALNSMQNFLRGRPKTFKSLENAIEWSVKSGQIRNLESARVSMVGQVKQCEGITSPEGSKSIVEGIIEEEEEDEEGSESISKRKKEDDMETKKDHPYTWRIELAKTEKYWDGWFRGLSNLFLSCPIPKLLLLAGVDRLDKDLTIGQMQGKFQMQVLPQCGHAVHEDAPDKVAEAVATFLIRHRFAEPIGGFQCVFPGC

T5 sequence (Q00975 whole entry): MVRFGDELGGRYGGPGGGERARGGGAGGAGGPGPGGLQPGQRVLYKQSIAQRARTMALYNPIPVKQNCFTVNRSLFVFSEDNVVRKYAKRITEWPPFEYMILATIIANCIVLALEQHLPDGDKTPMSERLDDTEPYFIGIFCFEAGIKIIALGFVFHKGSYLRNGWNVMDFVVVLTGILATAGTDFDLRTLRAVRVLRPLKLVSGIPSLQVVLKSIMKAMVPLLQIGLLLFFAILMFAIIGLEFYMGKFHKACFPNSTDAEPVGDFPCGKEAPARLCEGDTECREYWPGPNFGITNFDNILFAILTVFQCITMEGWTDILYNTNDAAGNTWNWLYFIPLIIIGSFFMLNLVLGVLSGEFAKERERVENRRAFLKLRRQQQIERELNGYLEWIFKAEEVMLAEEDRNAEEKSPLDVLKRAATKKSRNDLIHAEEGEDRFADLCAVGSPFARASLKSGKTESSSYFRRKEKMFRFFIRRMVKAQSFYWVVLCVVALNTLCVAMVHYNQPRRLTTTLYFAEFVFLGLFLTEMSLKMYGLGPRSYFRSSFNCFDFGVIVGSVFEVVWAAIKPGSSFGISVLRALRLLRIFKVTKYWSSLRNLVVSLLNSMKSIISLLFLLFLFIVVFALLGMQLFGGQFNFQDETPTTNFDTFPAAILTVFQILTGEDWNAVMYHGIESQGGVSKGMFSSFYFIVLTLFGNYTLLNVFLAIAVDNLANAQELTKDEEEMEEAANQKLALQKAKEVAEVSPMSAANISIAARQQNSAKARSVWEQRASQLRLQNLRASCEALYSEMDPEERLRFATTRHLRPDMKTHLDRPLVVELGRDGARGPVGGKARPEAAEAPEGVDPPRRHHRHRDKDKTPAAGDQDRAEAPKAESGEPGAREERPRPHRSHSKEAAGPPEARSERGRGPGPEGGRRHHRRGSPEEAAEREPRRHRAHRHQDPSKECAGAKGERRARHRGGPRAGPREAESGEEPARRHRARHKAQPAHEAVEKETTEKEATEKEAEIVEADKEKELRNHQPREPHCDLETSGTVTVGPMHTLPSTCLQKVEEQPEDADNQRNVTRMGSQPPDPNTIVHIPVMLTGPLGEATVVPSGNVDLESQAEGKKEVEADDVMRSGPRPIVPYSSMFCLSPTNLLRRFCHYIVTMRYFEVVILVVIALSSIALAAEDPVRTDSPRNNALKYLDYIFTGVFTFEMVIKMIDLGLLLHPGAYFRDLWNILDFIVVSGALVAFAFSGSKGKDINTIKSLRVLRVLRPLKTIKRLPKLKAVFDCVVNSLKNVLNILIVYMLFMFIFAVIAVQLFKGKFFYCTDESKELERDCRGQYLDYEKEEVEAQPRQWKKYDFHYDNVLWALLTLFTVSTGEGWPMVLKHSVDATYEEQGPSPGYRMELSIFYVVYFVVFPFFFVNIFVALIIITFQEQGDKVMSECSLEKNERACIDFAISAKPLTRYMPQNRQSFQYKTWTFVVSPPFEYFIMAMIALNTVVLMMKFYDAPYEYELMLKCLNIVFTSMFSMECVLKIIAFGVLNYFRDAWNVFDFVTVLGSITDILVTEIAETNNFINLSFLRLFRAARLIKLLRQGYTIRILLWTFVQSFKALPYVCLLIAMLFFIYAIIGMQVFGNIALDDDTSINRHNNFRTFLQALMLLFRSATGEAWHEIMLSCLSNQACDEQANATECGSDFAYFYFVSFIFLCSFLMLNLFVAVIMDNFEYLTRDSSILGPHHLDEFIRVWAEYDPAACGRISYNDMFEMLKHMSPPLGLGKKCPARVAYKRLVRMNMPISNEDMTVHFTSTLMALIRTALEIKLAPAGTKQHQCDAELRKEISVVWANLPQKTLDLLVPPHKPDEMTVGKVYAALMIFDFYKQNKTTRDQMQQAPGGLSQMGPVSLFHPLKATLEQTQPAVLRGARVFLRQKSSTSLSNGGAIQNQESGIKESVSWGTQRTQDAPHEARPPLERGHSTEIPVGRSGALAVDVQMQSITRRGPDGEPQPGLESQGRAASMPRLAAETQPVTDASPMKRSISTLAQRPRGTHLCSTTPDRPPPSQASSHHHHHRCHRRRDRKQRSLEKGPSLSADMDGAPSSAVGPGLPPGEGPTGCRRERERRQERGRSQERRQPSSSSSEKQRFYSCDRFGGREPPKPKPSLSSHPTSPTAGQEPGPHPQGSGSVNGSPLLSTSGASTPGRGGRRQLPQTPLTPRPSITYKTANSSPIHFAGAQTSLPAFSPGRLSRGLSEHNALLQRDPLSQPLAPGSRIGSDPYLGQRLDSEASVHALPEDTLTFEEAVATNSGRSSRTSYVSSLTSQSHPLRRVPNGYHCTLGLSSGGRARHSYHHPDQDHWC
T5 sequence (Q02410 whole entry): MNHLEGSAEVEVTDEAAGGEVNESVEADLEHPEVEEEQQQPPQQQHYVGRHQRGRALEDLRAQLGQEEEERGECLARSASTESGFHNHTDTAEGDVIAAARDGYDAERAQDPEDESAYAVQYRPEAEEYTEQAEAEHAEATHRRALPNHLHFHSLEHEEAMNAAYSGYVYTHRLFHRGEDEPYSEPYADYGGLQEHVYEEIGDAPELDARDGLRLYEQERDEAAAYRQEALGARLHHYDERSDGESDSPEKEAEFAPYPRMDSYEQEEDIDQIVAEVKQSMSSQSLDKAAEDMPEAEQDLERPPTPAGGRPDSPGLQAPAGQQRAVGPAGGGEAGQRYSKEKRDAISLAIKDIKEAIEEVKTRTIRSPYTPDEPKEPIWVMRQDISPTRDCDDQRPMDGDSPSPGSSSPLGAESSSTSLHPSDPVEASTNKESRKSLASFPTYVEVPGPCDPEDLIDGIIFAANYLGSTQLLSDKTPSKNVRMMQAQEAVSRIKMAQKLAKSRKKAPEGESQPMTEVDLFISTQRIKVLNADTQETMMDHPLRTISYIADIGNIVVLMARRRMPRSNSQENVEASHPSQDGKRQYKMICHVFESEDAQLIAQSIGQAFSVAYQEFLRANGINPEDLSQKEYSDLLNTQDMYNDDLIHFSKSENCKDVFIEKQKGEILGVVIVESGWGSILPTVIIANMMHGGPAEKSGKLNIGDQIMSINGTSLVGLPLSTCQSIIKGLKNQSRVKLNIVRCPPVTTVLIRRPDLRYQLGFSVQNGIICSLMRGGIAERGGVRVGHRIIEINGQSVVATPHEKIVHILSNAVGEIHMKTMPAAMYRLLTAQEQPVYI
Sequence of Bifunctional protein GlmU (P9WMN3 whole entry): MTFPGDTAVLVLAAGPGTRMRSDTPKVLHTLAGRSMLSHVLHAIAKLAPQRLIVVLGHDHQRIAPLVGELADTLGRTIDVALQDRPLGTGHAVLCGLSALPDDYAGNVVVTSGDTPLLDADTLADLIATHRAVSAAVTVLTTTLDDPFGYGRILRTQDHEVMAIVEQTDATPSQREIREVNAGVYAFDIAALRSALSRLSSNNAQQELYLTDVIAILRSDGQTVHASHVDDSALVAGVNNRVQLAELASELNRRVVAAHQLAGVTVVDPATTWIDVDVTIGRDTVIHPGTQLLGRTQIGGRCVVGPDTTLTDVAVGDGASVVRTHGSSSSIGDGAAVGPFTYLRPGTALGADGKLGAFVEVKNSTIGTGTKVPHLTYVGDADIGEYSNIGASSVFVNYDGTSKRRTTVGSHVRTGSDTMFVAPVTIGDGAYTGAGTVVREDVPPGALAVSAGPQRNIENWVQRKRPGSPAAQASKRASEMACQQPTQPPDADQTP
Sequence of Glucose-6-phosphate 1-dehydrogenase (P11413 whole entry): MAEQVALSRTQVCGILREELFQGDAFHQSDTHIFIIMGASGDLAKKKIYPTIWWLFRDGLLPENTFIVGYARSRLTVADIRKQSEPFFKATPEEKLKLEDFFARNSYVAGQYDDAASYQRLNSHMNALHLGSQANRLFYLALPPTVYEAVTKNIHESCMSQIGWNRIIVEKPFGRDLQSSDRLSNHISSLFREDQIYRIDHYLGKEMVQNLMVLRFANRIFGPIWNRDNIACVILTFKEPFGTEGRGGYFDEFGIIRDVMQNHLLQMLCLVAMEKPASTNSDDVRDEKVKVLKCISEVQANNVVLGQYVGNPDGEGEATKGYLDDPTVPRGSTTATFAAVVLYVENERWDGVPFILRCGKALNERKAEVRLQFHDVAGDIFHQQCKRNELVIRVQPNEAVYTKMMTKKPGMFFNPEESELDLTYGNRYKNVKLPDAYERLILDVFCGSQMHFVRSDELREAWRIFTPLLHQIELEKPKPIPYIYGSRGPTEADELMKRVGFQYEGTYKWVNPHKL
Sequence of Scavenger receptor class B member 1 (Q61009 whole entry): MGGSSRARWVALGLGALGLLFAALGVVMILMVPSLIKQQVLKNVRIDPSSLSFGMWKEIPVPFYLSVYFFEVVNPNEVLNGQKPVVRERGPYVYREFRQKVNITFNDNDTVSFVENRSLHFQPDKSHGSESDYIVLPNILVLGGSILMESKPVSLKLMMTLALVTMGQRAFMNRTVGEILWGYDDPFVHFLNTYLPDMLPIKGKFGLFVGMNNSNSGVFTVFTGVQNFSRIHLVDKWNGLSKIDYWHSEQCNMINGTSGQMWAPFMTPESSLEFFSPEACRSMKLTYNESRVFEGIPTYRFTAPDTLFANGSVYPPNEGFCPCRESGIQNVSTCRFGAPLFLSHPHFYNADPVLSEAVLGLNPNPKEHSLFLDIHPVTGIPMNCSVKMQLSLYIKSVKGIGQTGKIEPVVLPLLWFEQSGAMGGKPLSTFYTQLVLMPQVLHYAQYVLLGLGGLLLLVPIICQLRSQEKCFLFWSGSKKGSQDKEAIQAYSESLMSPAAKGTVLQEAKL

Broadly, the IC50 is the concentration that inhibits the measured activity by half. For orientation: EC50 means the concentration that produces a half-maximal response. As usually defined, the AC50 is the concentration giving half of the maximal activity seen. `COc1ccc(C)cc1Nc1n[n+](-c2ccccc2)c(-c2ccc(N(C)C)cc2)s1`: the half-maximal inhibitory concentration (IC50) in [1] is 3.42 µM (active); in [3], 3.54 µM (active). Besides, the results for the concentration for a half-maximal effect (EC50) in [2] and in experiment [4] were 2.27 µM (active) and > 150 µM (inactive), respectively. In the experiment on INS1, the AC50 is 2.53 µM (active).

With `COc1cc(C2CC(=O)c3c([nH]c(C(=O)OCCOC(C)C)c3C)C2)cc(OC)c1OC` (stereo unspecified), in experiment [5], the AC50 is 18 µM (active). Also, the concentration giving a half-maximal response (EC50) in [6] was 31 µM (active); in experiment [7], 38.4 µM (active).

In the case of `Cc1cccn2c(=O)c(C=O)c(N3CCCCCC3)nc12`, the IC50 is > 20 µM (inactive) in [8] and > 100 µM (inactive) on Protein skinhead-1. In addition, the AC50 in [9] is 24.8 µM (active).

For `CCn1c(=O)n(CC)c(=O)n([C@@H](Cc2ccccc2)C(=O)O)c1=O`, the half-inhibitory concentration (IC50) in experiment [10] is > 100 µM (not active); in experiment [11] it was > 100 µM (inactive); in experiment [12] it was > 100 µM (inactive); in experiment [13], > 100 µM (not active).

With `Cc1ccc(/C=C/C(=O)NCc2ccc(S(N)(=O)=O)cc2)o1`, the 50% inhibitory concentration (IC50) in experiment [14] is 3.12 µM (active); in experiment [15], > 80 µM (inactive); in experiment [16] it was 3.34 µM (active); in experiment [17], 8.37 µM (active); in experiment [18], 4.23 µM (active).

As to `O=C(c1coc(=O)c(Br)c1)N1CCOCC1`, the results for the concentration for half-maximal inhibition (IC50) (in experiment [19]; at Bcl-2-like protein 10; in experiment [20]) were 88.3 µM (active), 34 µM (active) and 7.34 µM (active), respectively. For the same molecule, the AC50 in experiment [21] was 12.1 µM (active).

Regarding `Brc1ccc(-c2noc(COc3ccc4c(c3)CCC4)n2)o1`, the half-maximal activity concentration (AC50) in the experiment on HeLa is 337 µM (active).

`CCCCS(=O)(=O)n1cccc1/C=C(\C#N)S(C)(=O)=O`: in experiment [22], the IC50 is > 20 µM (inactive).
